Biological target: Hsp90α (Homo sapiens, UniProt P07900)
Assay: SPR
Assay type: binding

CN1C(=O)[C@@]23C[C@]4([C@]56C[C@@]78SS[C@@](CO)(C(=O)N7[C@H]5Nc5ccccc56)N(C)C8=O)c5ccccc5N[C@@H]4N2C(=O)[C@]1(CO)SS3 [Chaetocin]
Kd: 2820 nM

Reference: PMC7771846 (Biomolecules & Therapeutics, 2020)
